The target of assay [1] is Cyclin-dependent kinase 2 (Homo sapiens, UniProt P24941).
For the next assay, the target named is T1, Ephrin type-B receptor 4 (Homo sapiens, UniProt P54760).
T1 sequence (P54760 whole entry): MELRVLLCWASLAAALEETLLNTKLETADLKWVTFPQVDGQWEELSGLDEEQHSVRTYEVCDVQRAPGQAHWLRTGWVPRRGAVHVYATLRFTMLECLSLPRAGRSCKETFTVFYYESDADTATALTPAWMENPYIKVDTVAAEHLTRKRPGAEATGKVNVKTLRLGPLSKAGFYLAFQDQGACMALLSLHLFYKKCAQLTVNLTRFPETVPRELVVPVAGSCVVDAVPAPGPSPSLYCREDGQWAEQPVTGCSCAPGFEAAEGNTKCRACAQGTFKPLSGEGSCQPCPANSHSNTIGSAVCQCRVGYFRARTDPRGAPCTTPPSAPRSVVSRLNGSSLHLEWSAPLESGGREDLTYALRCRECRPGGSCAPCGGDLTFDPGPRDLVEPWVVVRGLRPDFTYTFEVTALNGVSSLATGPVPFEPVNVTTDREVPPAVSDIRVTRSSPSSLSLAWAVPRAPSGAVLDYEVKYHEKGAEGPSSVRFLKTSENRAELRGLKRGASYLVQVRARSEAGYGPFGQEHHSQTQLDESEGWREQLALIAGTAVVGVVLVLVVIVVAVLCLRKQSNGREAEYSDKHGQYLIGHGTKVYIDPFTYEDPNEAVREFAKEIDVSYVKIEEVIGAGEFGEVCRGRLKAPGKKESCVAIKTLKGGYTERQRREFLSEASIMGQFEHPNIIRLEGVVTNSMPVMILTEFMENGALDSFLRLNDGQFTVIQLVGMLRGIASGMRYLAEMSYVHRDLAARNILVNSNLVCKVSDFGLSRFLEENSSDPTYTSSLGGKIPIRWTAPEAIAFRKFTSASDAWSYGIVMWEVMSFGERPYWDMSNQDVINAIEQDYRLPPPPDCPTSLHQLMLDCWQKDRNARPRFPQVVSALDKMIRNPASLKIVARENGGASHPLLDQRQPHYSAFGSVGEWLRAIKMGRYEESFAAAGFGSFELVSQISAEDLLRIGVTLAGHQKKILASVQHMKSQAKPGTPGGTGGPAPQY

Assay [2] deals with Dual specificity mitogen-activated protein kinase kinase 2 (Homo sapiens, UniProt P36507).
The target of assay [3] is Mitogen-activated protein kinase kinase kinase 4 (Homo sapiens, UniProt Q9Y6R4).
A further assay addresses Myosin-10 (Homo sapiens, UniProt P35580).
Assay [4] concerns the target cAMP-dependent protein kinase catalytic subunit alpha (Homo sapiens, UniProt P17612).
Assay [5] concerns the target T2, Serine/threonine-protein kinase D2 (Homo sapiens, UniProt Q9BZL6).
T2 sequence (Q9BZL6 whole entry): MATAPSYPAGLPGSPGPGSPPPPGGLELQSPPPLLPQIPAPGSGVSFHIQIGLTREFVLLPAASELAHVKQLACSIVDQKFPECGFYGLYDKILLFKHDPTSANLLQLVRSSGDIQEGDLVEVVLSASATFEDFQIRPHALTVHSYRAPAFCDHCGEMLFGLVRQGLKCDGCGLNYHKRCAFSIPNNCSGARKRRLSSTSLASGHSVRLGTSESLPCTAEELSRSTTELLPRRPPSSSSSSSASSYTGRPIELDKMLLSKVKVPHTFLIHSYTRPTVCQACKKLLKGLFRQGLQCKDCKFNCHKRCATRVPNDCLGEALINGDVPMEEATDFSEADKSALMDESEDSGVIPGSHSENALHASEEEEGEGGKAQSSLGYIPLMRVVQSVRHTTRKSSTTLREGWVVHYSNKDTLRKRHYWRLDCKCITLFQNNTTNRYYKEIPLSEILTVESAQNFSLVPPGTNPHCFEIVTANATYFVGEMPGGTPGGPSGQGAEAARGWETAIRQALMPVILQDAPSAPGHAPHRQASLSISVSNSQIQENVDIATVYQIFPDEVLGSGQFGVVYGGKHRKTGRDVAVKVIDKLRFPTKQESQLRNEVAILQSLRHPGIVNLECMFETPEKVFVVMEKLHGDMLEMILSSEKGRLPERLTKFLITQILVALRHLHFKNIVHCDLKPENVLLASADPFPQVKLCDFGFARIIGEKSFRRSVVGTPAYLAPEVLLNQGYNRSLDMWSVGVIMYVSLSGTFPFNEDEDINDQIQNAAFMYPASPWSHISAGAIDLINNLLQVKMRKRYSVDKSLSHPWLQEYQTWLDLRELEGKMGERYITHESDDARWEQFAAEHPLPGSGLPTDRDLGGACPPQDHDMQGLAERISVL

For assay [6], the target named is Protein-tyrosine kinase 6 (Homo sapiens, UniProt Q13882).
The target in assay [7] is T3, Serine/threonine-protein kinase 4 (Homo sapiens, UniProt Q13043).
T3 sequence (Q13043 whole entry): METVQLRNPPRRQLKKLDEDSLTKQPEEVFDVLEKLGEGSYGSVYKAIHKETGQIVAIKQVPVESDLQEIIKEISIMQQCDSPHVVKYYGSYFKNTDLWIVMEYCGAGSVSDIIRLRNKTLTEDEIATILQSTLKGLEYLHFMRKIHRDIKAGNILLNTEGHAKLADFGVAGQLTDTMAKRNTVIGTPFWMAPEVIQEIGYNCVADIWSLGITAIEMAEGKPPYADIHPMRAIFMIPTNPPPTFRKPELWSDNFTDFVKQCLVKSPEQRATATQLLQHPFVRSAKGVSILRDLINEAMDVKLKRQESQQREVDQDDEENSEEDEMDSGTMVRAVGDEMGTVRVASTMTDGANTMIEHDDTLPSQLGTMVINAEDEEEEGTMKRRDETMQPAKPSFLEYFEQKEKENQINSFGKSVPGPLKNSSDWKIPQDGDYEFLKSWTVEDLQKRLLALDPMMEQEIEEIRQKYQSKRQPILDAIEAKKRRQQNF

Calls of active or inactive are those of the source. For most assays here, no stated cut-off is given here; in the data, actives have a measured Kd and inactives only a lower limit.

Sequence of Protein-tyrosine kinase 6 (Q13882 whole entry): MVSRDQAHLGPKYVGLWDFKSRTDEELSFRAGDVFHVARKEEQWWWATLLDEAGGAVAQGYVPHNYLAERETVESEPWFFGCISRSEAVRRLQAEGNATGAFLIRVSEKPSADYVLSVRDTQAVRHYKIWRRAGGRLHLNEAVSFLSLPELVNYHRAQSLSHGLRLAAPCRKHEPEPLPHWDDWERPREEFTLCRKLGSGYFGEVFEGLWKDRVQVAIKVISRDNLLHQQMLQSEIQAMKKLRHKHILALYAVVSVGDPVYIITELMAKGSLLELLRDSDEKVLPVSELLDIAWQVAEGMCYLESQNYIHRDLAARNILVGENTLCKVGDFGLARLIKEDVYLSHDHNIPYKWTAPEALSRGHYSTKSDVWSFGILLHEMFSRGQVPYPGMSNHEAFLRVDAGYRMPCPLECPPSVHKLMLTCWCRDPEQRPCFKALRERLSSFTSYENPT
Sequence of Mitogen-activated protein kinase kinase kinase 4 (Q9Y6R4 whole entry): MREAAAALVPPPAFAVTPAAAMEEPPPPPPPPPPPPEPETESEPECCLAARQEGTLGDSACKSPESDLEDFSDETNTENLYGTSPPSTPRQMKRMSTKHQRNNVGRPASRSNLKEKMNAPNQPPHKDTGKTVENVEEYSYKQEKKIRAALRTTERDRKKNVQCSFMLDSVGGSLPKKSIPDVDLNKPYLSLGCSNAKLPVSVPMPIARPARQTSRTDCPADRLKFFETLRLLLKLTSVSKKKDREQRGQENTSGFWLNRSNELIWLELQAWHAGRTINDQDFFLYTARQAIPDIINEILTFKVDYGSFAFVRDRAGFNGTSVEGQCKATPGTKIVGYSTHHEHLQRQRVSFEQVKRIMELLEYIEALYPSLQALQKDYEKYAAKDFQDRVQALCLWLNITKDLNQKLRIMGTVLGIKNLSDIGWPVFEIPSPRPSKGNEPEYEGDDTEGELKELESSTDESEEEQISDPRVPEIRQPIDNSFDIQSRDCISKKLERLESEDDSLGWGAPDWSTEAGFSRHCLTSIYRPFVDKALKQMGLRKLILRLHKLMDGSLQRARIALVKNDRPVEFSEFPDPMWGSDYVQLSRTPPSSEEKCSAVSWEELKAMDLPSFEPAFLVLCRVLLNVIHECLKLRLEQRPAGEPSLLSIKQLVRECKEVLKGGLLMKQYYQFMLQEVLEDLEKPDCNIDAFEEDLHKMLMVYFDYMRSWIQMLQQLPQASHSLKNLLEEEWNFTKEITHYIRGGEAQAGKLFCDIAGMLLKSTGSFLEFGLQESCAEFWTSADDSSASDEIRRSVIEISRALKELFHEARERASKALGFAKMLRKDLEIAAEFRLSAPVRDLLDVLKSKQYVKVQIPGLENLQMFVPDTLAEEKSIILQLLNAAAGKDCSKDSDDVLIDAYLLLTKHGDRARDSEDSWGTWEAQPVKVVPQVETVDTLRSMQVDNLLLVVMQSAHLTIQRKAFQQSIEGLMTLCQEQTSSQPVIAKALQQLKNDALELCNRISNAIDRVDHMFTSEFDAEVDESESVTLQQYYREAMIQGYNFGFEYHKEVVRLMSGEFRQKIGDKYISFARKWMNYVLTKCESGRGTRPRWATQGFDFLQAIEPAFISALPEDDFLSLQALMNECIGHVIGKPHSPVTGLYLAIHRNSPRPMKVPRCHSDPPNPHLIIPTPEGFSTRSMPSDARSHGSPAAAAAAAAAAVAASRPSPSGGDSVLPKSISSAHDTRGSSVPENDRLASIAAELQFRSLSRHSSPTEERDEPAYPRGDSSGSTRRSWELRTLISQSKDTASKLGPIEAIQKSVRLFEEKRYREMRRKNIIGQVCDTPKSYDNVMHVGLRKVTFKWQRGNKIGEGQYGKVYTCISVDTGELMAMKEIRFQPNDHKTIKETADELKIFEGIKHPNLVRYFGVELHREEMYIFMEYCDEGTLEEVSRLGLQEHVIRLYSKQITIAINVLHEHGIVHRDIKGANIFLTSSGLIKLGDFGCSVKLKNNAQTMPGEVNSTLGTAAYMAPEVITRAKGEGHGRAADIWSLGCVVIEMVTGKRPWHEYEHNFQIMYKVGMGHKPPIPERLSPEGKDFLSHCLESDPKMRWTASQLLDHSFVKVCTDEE
Sequence of Dual specificity mitogen-activated protein kinase kinase 2 (P36507 whole entry): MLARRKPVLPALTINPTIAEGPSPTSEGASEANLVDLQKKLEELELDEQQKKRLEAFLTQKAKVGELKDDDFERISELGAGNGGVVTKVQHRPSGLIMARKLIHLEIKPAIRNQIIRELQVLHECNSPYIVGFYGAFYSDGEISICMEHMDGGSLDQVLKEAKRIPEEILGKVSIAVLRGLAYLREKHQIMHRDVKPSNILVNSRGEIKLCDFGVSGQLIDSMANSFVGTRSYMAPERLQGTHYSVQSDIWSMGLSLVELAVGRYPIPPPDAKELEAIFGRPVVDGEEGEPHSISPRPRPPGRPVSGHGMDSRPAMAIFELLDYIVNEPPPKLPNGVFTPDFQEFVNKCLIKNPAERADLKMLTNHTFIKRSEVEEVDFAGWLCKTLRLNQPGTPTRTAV
Sequence of Myosin-10 (P35580 whole entry): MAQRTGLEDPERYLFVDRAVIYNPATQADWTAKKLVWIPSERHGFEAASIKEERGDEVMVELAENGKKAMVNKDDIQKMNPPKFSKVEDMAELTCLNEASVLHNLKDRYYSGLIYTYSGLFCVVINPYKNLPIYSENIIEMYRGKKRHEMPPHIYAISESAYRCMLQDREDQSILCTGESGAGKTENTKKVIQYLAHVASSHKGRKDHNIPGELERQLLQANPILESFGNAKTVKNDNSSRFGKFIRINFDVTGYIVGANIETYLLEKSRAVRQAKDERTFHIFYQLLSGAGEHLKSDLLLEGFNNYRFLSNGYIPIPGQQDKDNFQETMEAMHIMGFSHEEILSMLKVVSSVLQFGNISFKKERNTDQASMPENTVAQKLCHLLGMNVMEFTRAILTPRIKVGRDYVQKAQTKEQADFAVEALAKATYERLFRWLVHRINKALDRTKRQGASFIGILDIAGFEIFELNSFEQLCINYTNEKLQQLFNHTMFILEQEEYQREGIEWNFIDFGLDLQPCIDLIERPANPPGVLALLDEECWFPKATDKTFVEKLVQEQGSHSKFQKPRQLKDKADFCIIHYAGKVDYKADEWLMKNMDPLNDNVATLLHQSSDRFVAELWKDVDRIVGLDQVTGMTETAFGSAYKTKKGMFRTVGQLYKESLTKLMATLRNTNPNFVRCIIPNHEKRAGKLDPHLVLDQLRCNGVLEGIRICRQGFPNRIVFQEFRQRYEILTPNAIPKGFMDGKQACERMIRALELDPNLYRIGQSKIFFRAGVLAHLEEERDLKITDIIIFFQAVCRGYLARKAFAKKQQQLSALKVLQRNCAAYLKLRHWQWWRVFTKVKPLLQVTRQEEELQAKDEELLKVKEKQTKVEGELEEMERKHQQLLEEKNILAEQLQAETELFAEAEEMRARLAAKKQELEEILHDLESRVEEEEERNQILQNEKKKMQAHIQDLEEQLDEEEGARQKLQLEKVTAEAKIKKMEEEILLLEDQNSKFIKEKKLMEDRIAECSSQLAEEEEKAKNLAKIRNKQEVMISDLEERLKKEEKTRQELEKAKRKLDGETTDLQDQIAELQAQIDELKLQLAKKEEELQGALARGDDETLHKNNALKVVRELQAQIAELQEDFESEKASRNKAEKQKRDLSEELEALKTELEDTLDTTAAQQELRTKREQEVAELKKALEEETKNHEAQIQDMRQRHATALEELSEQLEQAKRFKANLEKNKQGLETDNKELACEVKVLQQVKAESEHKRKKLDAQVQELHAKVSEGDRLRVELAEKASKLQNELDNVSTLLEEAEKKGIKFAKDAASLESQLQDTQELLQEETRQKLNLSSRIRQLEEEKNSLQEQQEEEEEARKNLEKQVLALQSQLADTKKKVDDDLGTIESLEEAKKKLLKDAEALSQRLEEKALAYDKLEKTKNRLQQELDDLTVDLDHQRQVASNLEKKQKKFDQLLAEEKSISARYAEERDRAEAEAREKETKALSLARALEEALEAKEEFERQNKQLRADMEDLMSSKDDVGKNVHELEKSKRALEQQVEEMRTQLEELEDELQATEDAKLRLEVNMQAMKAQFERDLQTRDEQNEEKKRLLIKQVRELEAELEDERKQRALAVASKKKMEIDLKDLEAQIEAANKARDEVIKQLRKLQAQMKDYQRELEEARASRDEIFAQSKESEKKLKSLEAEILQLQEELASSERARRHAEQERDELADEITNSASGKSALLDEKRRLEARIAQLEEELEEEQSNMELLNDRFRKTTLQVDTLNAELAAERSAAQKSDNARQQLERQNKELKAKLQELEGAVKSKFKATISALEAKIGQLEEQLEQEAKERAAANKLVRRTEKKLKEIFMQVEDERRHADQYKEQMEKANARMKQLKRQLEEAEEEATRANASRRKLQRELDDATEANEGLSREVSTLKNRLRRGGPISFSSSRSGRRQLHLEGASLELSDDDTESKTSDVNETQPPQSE

One may read the Kd as the constant that tells how readily two partners part at equilibrium. In the case of `Cc1nc2cc(-c3nn(C(C)C)c4ncnc(N)c34)ccc2o1`, the Kd in assay [1] is > 30 µM (inactive); at Ephrin type-B receptor 4, > 30 µM (inactive); in assay [2], 1.92 µM (active); in assay [3] it was > 30 µM (inactive); at Myosin-10 it was > 30 µM (inactive); in assay [4] it was > 30 µM (inactive). The Kd was > 30 µM (inactive) in assay [5], 2.1 µM (active) in assay [6] and > 30 µM (inactive) in [7].

As to `Cc1csc(-c2nnc(Nc3ccc(Oc4ncccc4-c4ccnc(N)n4)cc3)c3ccccc23)c1` [AMG-900], the Kd was > 30 µM (inactive) in [1]; > 30 µM (inactive) at Ephrin type-B receptor 4; 3.49 µM (active) in assay [2]; > 30 µM (inactive) in [3]; > 30 µM (inactive) at Myosin-10; > 30 µM (inactive) in assay [4]. Besides, the figures for the Kd in assay [5], in assay [6] and in [7] were 5.67 µM (active), > 30 µM (inactive) and > 30 µM (inactive), respectively.

Consider `COc1cc([C@@H]2c3cc4c(cc3[C@H](O)[C@H]3COC(=O)[C@@H]23)OCO4)cc(OC)c1OC` [AXL-1717], for which the Kd (in [1]; at Ephrin type-B receptor 4; in [2]; in assay [3]; on Myosin-10; in assay [4]) was > 30 µM (inactive) in each case. In addition, the Kd in [5], in assay [6] and in assay [7] was > 30 µM (inactive) throughout.

With `NC(=O)Nc1cc(-c2cccc(F)c2)sc1C(=O)N[C@H]1CCCNC1` [AZD-7762], the Kd in assay [1] was > 30 µM (inactive); on Ephrin type-B receptor 4, > 30 µM (inactive); in assay [2], 1.22 µM (active); in [3], > 30 µM (inactive); on Myosin-10, > 30 µM (inactive); in assay [4] it was > 30 µM (inactive). Moreover, the Kd in assay [5] was 1.16 µM (active); in assay [6], 1.37 µM (active); in [7] it was 0.056 µM (active).

Consider `COc1cc2ncnc(Oc3cccc(NC(=O)Nc4cc(C(C)(C)C(F)(F)F)on4)c3)c2cc1OC` [CEP-32496], for which the Kd is > 30 µM (inactive) in [1]; 9.82 µM (active) on Ephrin type-B receptor 4; > 30 µM (inactive) in assay [2]; > 30 µM (inactive) in assay [3]; > 30 µM (inactive) at Myosin-10; > 30 µM (inactive) in [4]. Moreover, the Kd in assay [5], in [6] and in assay [7] was > 30 µM (inactive) in each case.

Regarding `COc1c(OCCCN2CCOCC2)ccc2c1N=C(NC(=O)c1cnc(N)nc1)N1CCN=C21` [COPANLISIB], the Kd (in [1]; at Ephrin type-B receptor 4; in assay [2]; in assay [3]; at Myosin-10; in assay [4]) was > 30 µM (inactive) each time. In addition, the Kd in [5], in [6] and in assay [7] was > 30 µM (inactive) in each case.

In the case of `COCC(=O)NC/C=C/c1ccc2ncnc(Nc3ccc(Oc4ccc(C)nc4)c(C)c3)c2c1` [CP-724714], the Kd (in assay [1]; at Ephrin type-B receptor 4; in assay [2]; in [3]; on Myosin-10; in [4]) was > 30 µM (inactive) each time. In addition, the Kd in assay [5], in [6] and in assay [7] was > 30 µM (inactive) throughout.

Regarding `C#Cc1cccc(Nc2ncnc3cc(OC)c(OCCCCCCC(=O)NO)cc23)c1` [CUDC-101], the Kd (in assay [1]; at Ephrin type-B receptor 4; in assay [2]; in assay [3]; on Myosin-10; in assay [4]) was > 30 µM (inactive) in each case. Besides, the Kd in assay [5], in assay [6] and in [7] was > 30 µM (inactive) throughout.

`O=C(Nc1nc2cccc(-c3ccc(CN4CCS(=O)(=O)CC4)cc3)n2n1)C1CC1` [FILGOTINIB]: the Kd (in [1]; on Ephrin type-B receptor 4; in [2]; in [3]; on Myosin-10; in assay [4]) was > 30 µM (inactive) throughout. For the same compound, the Kd in [5], in [6] and in [7] was > 30 µM (inactive) in each case.

As for `COc1ccc(S(=O)(=O)N(C(C)=O)c2ccccc2/C=C/c2cc[n+]([O-])cc2)cc1` [HMN-214], the Kd (in assay [1]; at Ephrin type-B receptor 4; in assay [2]; in assay [3]; at Myosin-10; in assay [4]) was > 30 µM (inactive) each time. In addition, the Kd in assay [5], in assay [6] and in assay [7] was > 30 µM (inactive) in each case.

Consider `NC1(c2ccc(-c3nc4ccn5c(=O)[nH]nc5c4cc3-c3ccccc3)cc2)CCC1` [MK-2206], for which the Kd (in [1]; at Ephrin type-B receptor 4; in [2]; in assay [3]; on Myosin-10; in assay [4]) was > 30 µM (inactive) throughout. The Kd in assay [5], in assay [6] and in assay [7] was > 30 µM (inactive) in each case.

Regarding `CN(C[C@@H]1COCCO1)S(=O)(=O)Nc1ccc2ccc3ncc(-c4cnn(C)c4)cc3c(=O)c2c1` [MK-2461], the Kd (in assay [1]; on Ephrin type-B receptor 4; in assay [2]; in [3]; on Myosin-10; in assay [4]) was > 30 µM (inactive) in each case. Moreover, the Kd in [5], in [6] and in assay [7] was > 30 µM (inactive) in each case.

These data come from ChEMBL document CHEMBL3991601, “The target landscape of clinical kinase drugs” (Science, 2017).
